Source: ChEMBL document CHEMBL5154741, “Antibacterial alkylguanidino ureas: Molecular simplification approach, searching for membrane-based MoA” (Eur J Med Chem, 2022)
≈ marks a conversion by molar mass, not a printed value. Calls of active or inactive are those of the source. The calls are words filed in the database; no cut-off is given here.

Assays:
[1] = tested on: Bacillus subtilis; assay: Antibacterial activity against Bacillus subtilis ATCC 6633 assessed as bacterial growth inhibition incubated for 18 hrs by CLSI based micro-dilution broth method; format: functional
[2] = tested on: Enterococcus faecalis; assay: Antibacterial activity against Enterococcus faecalis ATCC 19433 assessed as bacterial growth inhibition incubated for 18 hrs by micro-dilution broth method; format: functional
[3] = tested on: Streptococcus pyogenes; assay: Antibacterial activity against Streptococcus pyogenes ATCC 12344 assessed as bacterial growth inhibition incubated for 18 hrs by micro-dilution broth method; format: functional
[4] = tested on: Staphylococcus aureus; assay: Antibacterial activity against Staphylococcus aureus ATCC 25923 assessed as bacterial growth inhibition incubated for 18 hrs by micro-dilution broth method; format: functional
[5] = tested on: Escherichia coli; assay: Antibacterial activity against Escherichia coli CCUG assessed as bacterial growth inhibition incubated for 18 hrs by micro-dilution broth method; format: functional
[6] = tested on: Klebsiella pneumoniae; assay: Antibacterial activity against Klebsiella pneumoniae ATCC 13833 assessed as bacterial growth inhibition incubated for 18 hrs by micro-dilution broth method; format: functional
[7] = tested on: Acinetobacter baumannii; assay: Antibacterial activity against Acinetobacter baumannii ATCC 17978 assessed as bacterial growth inhibition incubated for 18 hrs by micro-dilution broth method; format: functional
[8] = tested on: Pseudomonas aeruginosa; assay: Antibacterial activity against Pseudomonas aeruginosa ATCC 27853 assessed as bacterial growth inhibition incubated for 18 hrs by micro-dilution broth method; format: functional
[9] = tested on: Lipid bilayer; assay: Binding affinity to bacterial membrane mimic POPG large unilamellar vesicle assessed as hyperchromic shift at 125 uM measured after 1 hr by UV-Vis spectrophotometric analysis
[10] = tested on: Enterobacter cloacae; assay: Antibacterial activity against Enterobacter cloacae VA-417/02 assessed as bacterial growth inhibition incubated for 18 hrs by CLSI based micro-dilution broth method; format: functional
[11] = tested on: Klebsiella pneumoniae; assay: Antibacterial activity against pan drug-resistant Klebsiella pneumoniae S1-081Rb assessed as bacterial growth inhibition incubated for 18 hrs by CLSI based micro-dilution broth method; format: functional
[12] = tested on: Acinetobacter baumannii; assay: Antibacterial activity against Acinetobacter baumannii AC-54/97 assessed as bacterial growth inhibition incubated for 18 hrs by CLSI based micro-dilution broth method; format: functional
[13] = tested on: Lipid bilayer; assay: Binding affinity to bacterial membrane mimic POPG large unilamellar vesicle assessed as bathochromic shift at 125 uM measured at t = 0 by UV-Vis spectrophotometric analysis

| MIC [4] | MIC [5] | MIC [6] | MIC [8] | Molecule | MIC [1] | MIC [2] | MIC [3] | MIC [7] | Activity [9] | MBC [10] | MIC [10] | MBC [11] | MIC [11] | MBC [12] | MIC [12] | Activity [13] |
| --- | --- | --- | --- | --- | --- | --- | --- | --- | --- | --- | --- | --- | --- | --- | --- | --- |
| 128 µg/mL (≈ 246 µM) | 128 µg/mL (≈ 246 µM) | 128 µg/mL (≈ 246 µM) | > 128 µg/mL | CNC(=O)N(CCCCCCCCNC(=N)NCC1CC1)CCCCCCCCNC(=N)NCC1CC1 | 32 µg/mL (≈ 61.4 µM) | 64 µg/mL (≈ 123 µM) | 8 µg/mL (≈ 15.4 µM) | > 128 µg/mL | – | – | – | – | – | – | – | – |
| 128 µg/mL (≈ 237 µM) | > 128 µg/mL | > 128 µg/mL | > 128 µg/mL | N=C(N)NCCCCCCN(CCCCCCN)C(=O)N(CCCCCCN)CCCCCCNC(=N)N | 32 µg/mL (≈ 59.2 µM) | > 128 µg/mL | 128 µg/mL (≈ 237 µM) | > 128 µg/mL | – | – | – | – | – | – | – | – |
| 128 µg/mL (≈ 253 µM) | 64 µg/mL (≈ 126 µM) | > 128 µg/mL | > 128 µg/mL | N=C(NCCCCCCCCNC(=O)NCCCCCCCCNC(=N)NCC1CC1)NCC1CC1 | > 128 µg/mL | 64 µg/mL (≈ 126 µM) | 8 µg/mL (≈ 15.8 µM) | – | – | – | – | – | – | – | – | – |
| – | – | – | – | CN[C@H](CC(C)C)C(=O)N[C@H]1C(=O)N[C@@H](CC(N)=O)C(=O)N[C@H]2C(=O)N[C@H]3C(=O)N[C@H](C(=O)N[C@H](C(=O)O)c4cc(O)cc(O)c4-c4cc3ccc4O)[C@H](O)c3ccc(c(Cl)c3)Oc3cc2cc(c3O[C@@H]2O[C@H](CO)[C@@H](O)[C@H](O)[C@H]2O[C@H]2C[C@](C)(N)[C@H](O)[C@H](C)O2)Oc2ccc(cc2Cl)[C@H]1O [VANCOMYCIN] | 0.5 µg/mL (≈ 0.345 µM) | 1 µg/mL (≈ 0.69 µM) | 1 µg/mL (≈ 0.69 µM) | – | – | – | – | – | – | – | – | – |
| 8 µg/mL (≈ 14.1 µM) | 32 µg/mL (≈ 56.2 µM) | 16 µg/mL (≈ 28.1 µM) | 32 µg/mL (≈ 56.2 µM) | NCCCCCCCCN(CCCCCCCCN)C(=O)N(CCCCCCCCN)CCCCCCCCN | 4 µg/mL (≈ 7.03 µM) | 16 µg/mL (≈ 28.1 µM) | 4 µg/mL (≈ 7.03 µM) | 16 µg/mL (≈ 28.1 µM) | – | – | – | – | – | – | – | – |
| 0.5 µg/mL (≈ 0.766 µM) | 2 µg/mL (≈ 3.06 µM) | 16 µg/mL (≈ 24.5 µM) | 32 µg/mL (≈ 49 µM) | N=C(N)NCCCCCCCCN(CCCCCCCCNC(=N)N)C(=O)N(CCCCCCCCN)CCCCCCCCN | 0.5 µg/mL (≈ 0.766 µM) | 8 µg/mL (≈ 12.2 µM) | 0.25 µg/mL (≈ 0.383 µM) | 16 µg/mL (≈ 24.5 µM) | – | – | – | – | – | – | – | – |

| Molecule | MIC [4] | MIC [5] | MIC [6] | MIC [8] | MIC [1] | MIC [2] | MIC [3] | MIC [7] | Activity [9] | MBC [10] | MIC [10] | MBC [11] | MIC [11] | MBC [12] | MIC [12] | Activity [13] |
| --- | --- | --- | --- | --- | --- | --- | --- | --- | --- | --- | --- | --- | --- | --- | --- | --- |
| N=C(NCCCCCCCCN(CCCCCCCCNC(=N)NCC1CC1)C(N)=O)NCC1CC1.O=C(O)C(F)(F)F | 16 µg/mL | 32 µg/mL | 32 µg/mL | 128 µg/mL | 8 µg/mL | 16 µg/mL | 2 µg/mL | 128 µg/mL | – | – | – | – | – | – | – | – |
| CCCCCCCCCC(=O)N[C@@H](Cc1c[nH]c2ccccc12)C(=O)N[C@H](CC(N)=O)C(=O)N[C@@H](CC(=O)O)C(=O)N[C@@H]1C(=O)NCC(=O)N[C@@H](CCCN)C(=O)N[C@@H](CC(=O)O)C(=O)N[C@H](C)C(=O)N[C@@H](CC(=O)O)C(=O)NCC(=O)N[C@H](CO)C(=O)N[C@@H]([C@H](C)CC(=O)O)C(=O)N[C@@H](CC(=O)c2ccccc2N)C(=O)O[C@@H]1C | 0.12 µg/mL (≈ 0.074 µM) | – | – | – | 1 µg/mL (≈ 0.617 µM) | 1 µg/mL (≈ 0.617 µM) | 0.5 µg/mL (≈ 0.309 µM) | – | – | – | – | – | – | – | – | – |
| COLISTIN | – | 0.5 µg/mL | 0.5 µg/mL | 0.5 µg/mL | – | – | – | 1 µg/mL | – | – | – | – | – | – | – | – |
| N=C(N)NCCCCCCCCN(CCCCCCCCN)C(=O)N(CCCCCCCCNC(=N)N)CCCCCCCCNC(=N)N | 1 µg/mL (≈ 1.44 µM) | 2 µg/mL (≈ 2.88 µM) | 8 µg/mL (≈ 11.5 µM) | 16 µg/mL (≈ 23 µM) | 1 µg/mL (≈ 1.44 µM) | 4 µg/mL (≈ 5.75 µM) | 0.25 µg/mL (≈ 0.36 µM) | 16 µg/mL (≈ 23 µM) | Active | 8 µg/mL (≈ 11.5 µM) | 8 µg/mL (≈ 11.5 µM) | 16 µg/mL (≈ 23 µM) | 16 µg/mL (≈ 23 µM) | 8 µg/mL (≈ 11.5 µM) | 8 µg/mL (≈ 11.5 µM) | Active |
| CNC(=O)NCCCCCCCCNC(=N)NCC1CC1.O=C(O)C(F)(F)F | 32 µg/mL | 128 µg/mL | 128 µg/mL | > 128 µg/mL | 64 µg/mL | 64 µg/mL | 128 µg/mL | > 128 µg/mL | – | – | – | – | – | – | – | – |
